Measurements taken from patent US11000033B2, “Ketone or oxime compound, and herbicide” (NISSAN CHEMICAL CORPORATION, priority 2014, dated 2021).

Columns and labels:
Assay type in all cases: in vivo
Stellaria media = assay: Test Example 4: herbicidal effect by soil treatment (symbol P); conditions: 320 g/ha
Outline: (§1)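 Seeds were sown in sterilized diluvial soil, covered with about 1.5 cm of soil, and the soil surface was sprayed with a water-diluted emulsion of the compound at a predetermined rate. Plants grew in a greenhouse at 25° C. to 30° C.; effects were scored visually 3 weeks after application.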

[1] = tested on: Echinochloa oryzacola Vasing.; assay: Test Example 1: herbicidal activity, application before weed generation in submerged conditions (symbol A); conditions: application herbicide amount 320 g/ha
Outline: (§2)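 Paddy pre-emergence test. Formulated emulsion, water-diluted to a predetermined rate, is applied to floodwater on sowing day; rice transplanted at 2.5 leaves. Effect read at 3 weeks on a 0–5 herbicidal-ratio scale.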

Setaria viridis = assay: Test Example 5: herbicidal effect by foliage application, plastic box (symbol G); conditions: 320 g/ha, 3 weeks after application
Outline: (§3)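 Seeds were sown in sterilized diluvial soil, covered with about 1.5 cm of soil and grown 14 days in a greenhouse at 25° C. to 30° C. An emulsifiable formulation diluted in water to a set rate was sprayed over foliage, and injury was scored 3 weeks later.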

corn = assay: Test Example 4: effect on crop by soil treatment (symbol c); conditions: 320 g/ha
Outline: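 Seeds were sown in spots on sterilized diluvial soil in a plastic box and covered with about 1.5 cm of soil. Plants were then grown in a greenhouse at 25° C. to 30° C.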

Amaranthus retroflexus [2] = assay: Test Example 4: herbicidal effect by soil treatment (symbol N); conditions: 320 g/ha
Outline: as §1

rapeseed [3] = assay: Test Example 5: effect on crop by foliage application, plastic box (symbol g); conditions: 320 g/ha, 3 weeks after application
Outline: (§4)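 Crop seed is sown alongside grass and broadleaf weed species in spots in sterilized diluvial soil, then covered to a depth of about 1.5 cm. Plants grow in a greenhouse kept at 25° C. to 30° C.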

[4] = tested on: Echinochloa crus-galli var. crus-galli; assay: Test Example 5: herbicidal effect by foliage application, plastic box (symbol H); conditions: 320 g/ha, 3 weeks after application
Outline: as §3

Amaranthus retroflexus [5] = assay: Test Example 5: herbicidal effect by foliage application, plastic box (symbol N); conditions: 320 g/ha, 3 weeks after application
Outline: as §3

[6] = tested on: directly sowed rice plant; assay: Test Example 3: effect on crop by foliage application, Wagner pot (symbol b); conditions: application herbicide amount 320 g/ha
Outline: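 Alluvial soil in a 1/10000-are Wagner pot was flooded to a water depth of 0.1–0.5 cm. Echinochloa crus-galli var. crus-galli, Leptochloa chinensis, Cyperus difformis and rice were sown into it and grown in a greenhouse at 25–30 °C.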

rice = assay: Test Example 4: effect on crop by soil treatment (symbol b); conditions: 320 g/ha
Outline: (§5)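 Greenhouse culture at 25° C. to 30° C. followed sowing of seed in spots on sterilized diluvial soil with a soil cover close to 1.5 cm thick.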

[7] = tested on: Echinochloa crus-galli var. crus-galli; assay: Test Example 4: herbicidal effect by soil treatment (symbol H); conditions: 320 g/ha
Outline: as §1

Cyperus difformis = assay: Test Example 3: herbicidal effect by foliage application, Wagner pot (symbol E); conditions: application herbicide amount 320 g/ha
Outline: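 Alluvial soil was flooded to a depth of 0.1–0.5 cm, seeded with the weeds and rice, and kept in a greenhouse at 25–30 °C. After 14 days of growth, the foliage received a small-sprayer application of emulsion diluted to the intended rate; injury was rated at 3 weeks.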

beet = assay: Test Example 5: effect on crop by foliage application, plastic box (symbol f); conditions: 320 g/ha, 3 weeks after application
Outline: as §4

Scirpus juncoides = assay: Test Example 1: herbicidal activity, application before weed generation in submerged conditions (symbol B); conditions: application herbicide amount 320 g/ha
Outline: as §2

rapeseed [8] = assay: Test Example 4: effect on crop by soil treatment (symbol g); conditions: 320 g/ha
Outline: as §5

Monochoria vaginalis = assay: Test Example 1: herbicidal activity, application before weed generation in submerged conditions (symbol C); conditions: application herbicide amount 320 g/ha
Outline: as §2

Row | Structure (SMILES) | P: Stellaria media, herbicidal effect grade (Stellaria media) | Herbicidal effect grade, A: Echinochloa oryzacola Vasing. [1] | G: Setaria viridis, herbicidal effect (criteria 0-5) (Setaria viridis) | c: corn, effect grade on crop (corn) | N: Amaranthus retroflexus, herbicidal effect grade (Amaranthus retroflexus [2]) | g: rapeseed, effect on crop (criteria 0-5) (rapeseed [3]) | H: Echinochloa crus-galli var. crus-galli, herbicidal effect (criteria 0-5) [4] | N: Amaranthus retroflexus, herbicidal effect (criteria 0-5) (Amaranthus retroflexus [5]) | effect on crop b (directly sowed rice plant), grade 0-5 [6] | b: directly sowed rice plant, effect grade on crop (rice) | H: Echinochloa crus-galli var. crus-galli, herbicidal effect grade [7] | herbicidal effect on E, grade 0-5 (Cyperus difformis) | f: beet, effect on crop (criteria 0-5) (beet) | Herbicidal effect grade, B: Scirpus juncoides (Scirpus juncoides) | g: rapeseed, effect grade on crop (rapeseed [8]) | Herbicidal effect grade, C: Monochoria vaginalis (Monochoria vaginalis)
1 | CON=C(C)CC1CC(OS(=O)(=O)N(C)C)=C(c2c(C)cc(C)cc2C)C1=O (centres unmarked) [1-122] | 0 (Herbicidal ratio of 5% or lower (almost no effect)) | 5 (Herbicidal ratio of 90% or more (almost completely withered)) | 5 (Herbicidal ratio of 90% or more (almost completely withered)) | 2 (Herbicidal ratio of 20% or higher and lower than 40%) | 0 (Herbicidal ratio of 5% or lower (almost no effect)) | 5 (Herbicidal ratio of 90% or more (almost completely withered)) | 5 (Herbicidal ratio of 90% or more (almost completely withered)) | 1 (Herbicidal ratio of 5% or higher and lower than 20%) | 5 (Herbicidal ratio of 90% or more (almost completely withered)) | 4 (Herbicidal ratio of 70% or higher and lower than 90%) | 4 (Herbicidal ratio of 70% or higher and lower than 90%) | 5 (Herbicidal ratio of 90% or more (almost completely withered)) | 0 (Herbicidal ratio of 5% or lower (almost no effect)) | 5 (Herbicidal ratio of 90% or more (almost completely withered)) | 0 (Herbicidal ratio of 5% or lower (almost no effect)) | 0 (Herbicidal ratio of 5% or lower (almost no effect))
2 | CCCON=C(C)CC1CC(O)=C(c2c(C)cc(C)cc2C)C1=O (centres unmarked) [1-123] | 0 (Herbicidal ratio of 5% or lower (almost no effect)) | 5 (Herbicidal ratio of 90% or more (almost completely withered)) | 5 (Herbicidal ratio of 90% or more (almost completely withered)) | 3 (Herbicidal ratio of 40% or higher and lower than 70%) | 0 (Herbicidal ratio of 5% or lower (almost no effect)) | 5 (Herbicidal ratio of 90% or more (almost completely withered)) | 5 (Herbicidal ratio of 90% or more (almost completely withered)) | 0 (Herbicidal ratio of 5% or lower (almost no effect)) | 5 (Herbicidal ratio of 90% or more (almost completely withered)) | 5 (Herbicidal ratio of 90% or more (almost completely withered)) | 5 (Herbicidal ratio of 90% or more (almost completely withered)) | 4 (Herbicidal ratio of 70% or higher and lower than 90%) | 0 (Herbicidal ratio of 5% or lower (almost no effect)) | 4 (Herbicidal ratio of 70% or higher and lower than 90%) | 3 (Herbicidal ratio of 40% or higher and lower than 70%) | 3 (Herbicidal ratio of 40% or higher and lower than 70%)
3 | CC(CC1CC(O)=C(c2c(C)cc(C)cc2C)C1=O)=NOCC(N)=O (centres unmarked) [1-124] | 0 (Herbicidal ratio of 5% or lower (almost no effect)) | 1 (Herbicidal ratio of 5% or higher and lower than 20%) | 2 (Herbicidal ratio of 20% or higher and lower than 40%) | 0 (Herbicidal ratio of 5% or lower (almost no effect)) | 0 (Herbicidal ratio of 5% or lower (almost no effect)) | 4 (Herbicidal ratio of 70% or higher and lower than 90%) | 5 (Herbicidal ratio of 90% or more (almost completely withered)) | 0 (Herbicidal ratio of 5% or lower (almost no effect)) | 5 (Herbicidal ratio of 90% or more (almost completely withered)) | 1 (Herbicidal ratio of 5% or higher and lower than 20%) | 1 (Herbicidal ratio of 5% or higher and lower than 20%) | 0 (Herbicidal ratio of 5% or lower (almost no effect)) | 0 (Herbicidal ratio of 5% or lower (almost no effect)) | 0 (Herbicidal ratio of 5% or lower (almost no effect)) | 0 (Herbicidal ratio of 5% or lower (almost no effect)) | 0 (Herbicidal ratio of 5% or lower (almost no effect))
4 | CC(CC1CC(O)=C(c2c(C)cc(C)cc2C)C1=O)=NOCC[S+](C)[O-] (centres unmarked) [1-125] | 0 (Herbicidal ratio of 5% or lower (almost no effect)) | 3 (Herbicidal ratio of 40% or higher and lower than 70%) | 5 (Herbicidal ratio of 90% or more (almost completely withered)) | 2 (Herbicidal ratio of 20% or higher and lower than 40%) | 0 (Herbicidal ratio of 5% or lower (almost no effect)) | 3 (Herbicidal ratio of 40% or higher and lower than 70%) | 5 (Herbicidal ratio of 90% or more (almost completely withered)) | 0 (Herbicidal ratio of 5% or lower (almost no effect)) | 5 (Herbicidal ratio of 90% or more (almost completely withered)) | 5 (Herbicidal ratio of 90% or more (almost completely withered)) | 5 (Herbicidal ratio of 90% or more (almost completely withered)) | 2 (Herbicidal ratio of 20% or higher and lower than 40%) | 0 (Herbicidal ratio of 5% or lower (almost no effect)) | 0 (Herbicidal ratio of 5% or lower (almost no effect)) | 0 (Herbicidal ratio of 5% or lower (almost no effect)) | 1 (Herbicidal ratio of 5% or higher and lower than 20%)
5 | CON=C(C)CC1CC(OC(=O)N(C)CCCCCl)=C(c2c(C)cc(C)cc2C)C1=O (centres unmarked) [1-126] | 0 (Herbicidal ratio of 5% or lower (almost no effect)) | 4 (Herbicidal ratio of 70% or higher and lower than 90%) | 4 (Herbicidal ratio of 70% or higher and lower than 90%) | 0 (Herbicidal ratio of 5% or lower (almost no effect)) | 0 (Herbicidal ratio of 5% or lower (almost no effect)) | 4 (Herbicidal ratio of 70% or higher and lower than 90%) | 4 (Herbicidal ratio of 70% or higher and lower than 90%) | 0 (Herbicidal ratio of 5% or lower (almost no effect)) | 5 (Herbicidal ratio of 90% or more (almost completely withered)) | 0 (Herbicidal ratio of 5% or lower (almost no effect)) | 0 (Herbicidal ratio of 5% or lower (almost no effect)) | 2 (Herbicidal ratio of 20% or higher and lower than 40%) | 0 (Herbicidal ratio of 5% or lower (almost no effect)) | 0 (Herbicidal ratio of 5% or lower (almost no effect)) | 0 (Herbicidal ratio of 5% or lower (almost no effect)) | 0 (Herbicidal ratio of 5% or lower (almost no effect))
